Test results taken from US6479670B1, “Selective retinoid acid receptor agonists” (Hoffmann-La Roche Inc., priority 1999, dated 2002).

System: rat model of elastase-induced emphysema
Experiment: Repair of alveoli in elastase-induced emphysema (rat model), morphometric analysis
Assay type: in vivo, male Sprague Dawley rats
Settings: elastase-induced emphysema in rats
Experimental: RAR selective agonists were evaluated for its effects on alveolar repair in the rat model of elastase-induced emphysema in rats (Massaro et al. Nature (Medicine, 1997, 3, 675)). Animals were divided into treatment groups of approximately eight. Lung inflammation and alveolar damage was induced in male Sprague Dawley rats by a single instillation of pancreatic elastase(porcine derived, Calbiochem) 2 U/gram body mass. Three weeks post injury all-trans retinoic acid or RAR agonist was dissolved in dimethylsulfoxide (20 mg/ml) and stored at −20 C. Fresh working stocks were prepared fresh daily by dilution in PBS to a final concentration of 2 mg/ml. Animals treated with all-trans retinoic acid (0.5 mg/Kg ip) were dosed once daily by intraperitoneal injection, starting 21 days post injury. Control groups were challenged with elastase and 21 days later treated with Vehicle (DMSO/PBS) for 14 days. Animals were sacrificed 24 hours after the last dose of by exsanguination under deep anesthesia.
The lungs were inflated with 10% neutral buffered formalin by intratracheal instillation at a constant rate (1 ml/gram body mass/min). The lung was excised and immersed in fixative for 24 hours prior to processing. Standard methods were used to prepare 5 um paraffin sections. Sections were stained with Hematoxylin and Eosin (H%E). Computerized Morphometric analysis was performed to determine the average alveolar size and alveolar number (Table 1).

## COCC1(C)CCCOc2cc(C#Cc3ccc(C(=O)O)cc3)ccc21 (racemic) [A, 4-(5-methoxymethyl-5-methyl-2,3,4,5-tetrahydro-1-benzo[b]oxepin-8-yl-ethynyl)-benzoic acid]
0.1 mg/kg p.o.
  % repair area: 45.2%
0.3 mg/kg p.o.
  % repair area: 51.3%
0.5 mg/kg i.p.
  % repair area: 58%
